# In US5340811A, “Isoquinoline-or quinoline-sulfonamide derivative and a pharmaceutical composition comprising the same” (priority 1990, dated 1994):
# Where a name gives a salt, the structure may show the parent alone.
# Assays:
# trachea of a guinea pig = assay: Effect on trachea in vivo: inhibition of histamine-induced tracheal contraction (modified Konzett-Rossler method); details: for suppression of histamine-induced bronchial contraction: contraction induced by intravenous administration of 1 mg/kg of histamine (as printed in text); for inhibition in vivo at 1 mg/kg: Cavia porcellus, iv, 0.05 h, compound 1 mg/kg via femoral vein, histamine 20 μg/kg i.v. after 3 minutes, urethane anesthesia, n=3, non-salt compounds used as hydrochloride
# Excerpt: According to a modified method of Konzett-Rossler method [see J. Martinez et al, Bronchial Arterial Injections, vol. […] Urethane was intraperitoneally administered to male guinea pigs weighing 350 to 600 g (Hartley strain, Kuroda Junkei Dobutsu) in an amount of 1.5 g/kg of body weight to anesthetize the animals. Then, cannulae were inserted into the trachea and femoral vein of each animal under urethane anesthesia and fixed. […] Each of the above-mentioned compounds of the present invention was administered to guinea pigs through the femoral vein in an amount of 1 mg/kg of body weight. […] As a solvent for each compound, physiological saline was used. The number of the guinea pigs tested in each group was 3.
# [1] = tested on: tracheal specimens excised from guinea pigs; assay: Inhibitory effect on KCl-induced contraction of tracheal specimens excised from guinea pigs; type: cell-based, guinea pig; details: Cavia porcellus; dose relaxing KCl (20 mM)-induced contraction to 50%; 37° C.; n=3; non-salt compounds used as hydrochloride; read-out: ED50 (KCl-induced contraction)
# Excerpt: According to a method in which tracheal specimens excised from guinea pigs were used (Takagi and Ozawa, "Yakubutsugaku Jikken (Experiments in Pharmacology)", pp.100-102, 1960, published by Nanzando Japan; and Fujiwara and Shibata, "Yakurigaku Kiso Jikenho (Methods of Fundamental Experiments in Pharmacology)" pp.131-134, 1982, published by Kyourin, Japan), relaxing effect of sulfonamide derivatives of the present invention on bronchial smooth muscle was examined. […] After the KCl-induced contraction became stable, each of the compounds of the present invention was dissolved in distilled water or physiological saline, and the compound solution was cumulatively added into the Magnus tube. The relaxing effect of each of the compounds of the present invention on contracted tracheal specimens was evaluated and a dose-response curve was obtained. A dose required for relaxing KCl-induced contraction to 50%, i.e., ED50 was calculated from the dose-response curve. […] The number of tracheal specimens in each group was 3.
# [2] = tested on: tracheal specimens excised from guinea pigs; assay: Inhibitory effect on PGF2α-induced contraction of tracheal specimens excised from guinea pigs; type: cell-based, guinea pig; details: Cavia porcellus; dose relaxing PGF2α (final 1 μm)-induced contraction to 50%; n=3; non-salt compounds used as hydrochloride; read-out: PGF2α-induced contraction ED50 (Table 18)
# Method: Tracheal specimens excised from male guinea pigs weighing 350 to 500 g (Hartley strain, Kuroda Junkei Dobutsu) were contracted in substantially the same manner as in Application Example 1 except that PGF2α (final concentration: 1 μm) was used instead of KCl. After the contraction of the tracheal specimens became stable, each of the compounds (hydrochloride) of the present invention was dissolved in distilled water or physiological saline, and the compound solution was cumulatively added into the Magnus tube in the same manner as in Application Example 1. The relaxing effect of each of the compounds of the present invention on the contracted specimens was evaluated and a dose-response curve was obtained. The dose required for relaxing PGF2α-induced contraction to 50%, i.e., ED50 was calculated form the dose-response curve. […] For comparison, the same procedure as described above was repeated except that aminophylline, comparative compound (1) and comparative compound (2) were individually used instead of the compound of the present invention, to obtain an ED50. The number of specimens in each group was 3.
# [3] = known from literature/patents; cited from earlier work
# [4] = known from literature/patents; cited from earlier work; remark: listed apart in the source
smiles,measurement,setting,value
"Cl.NC1CCCN(S(=O)(=O)c2cccc3cnccc23)C1 (stereo not shown) [Comparative compound (2), 1-(5-isoquinolinesulfonyl)-3-aminopiperidine hydrochloride]",suppression of histamine-induced bronchial contraction,trachea of a guinea pig,12%
"O=S(=O)(NCCN1CCCNCC1)c1cccc2c(O)nccc12 [(33), 1-(1-hydroxy-5-isoquinolinesulfonylaminoethyl) homopiperazine hydrochloride]",EC50,[1],24 µM
"O=S(=O)(NCCNCc1ccc2c(c1)OCO2)c1cccc2cnccc12 [(3), N-[2(3,4-methylenedioxybenzylamino)ethyl]-5-isoquinolinesulfonamide]",suppression of histamine-induced bronchial contraction,trachea of a guinea pig,36%
"Cn1c(=O)c2[nH]cnc2n(C)c1=O [Aminophylline, aminophylline]",EC50,[2],≥ 200 µM
same,suppression of histamine-induced bronchial contraction,trachea of a guinea pig,7%
"O=S(=O)(NCCN1CCCN(Cc2ccc3c(c2)OCO3)CC1)c1cccc2cnccc12 [(31), 1-(5-isoquinolinesulfonylaminoethyl)-4-(3,4-methylenedioxybenzyl)homopiperazine]",inhibition in vivo at 1 mg/kg,trachea of a guinea pig,35%
"CCCCCCN(CCN)S(=O)(=O)c1cccc2cnccc12.Cl [Comparative compound (1), N-(2-aminoethyl)-N-hexyl-5-isoquinolinesulfonamide hydrochloride]",suppression of histamine-induced bronchial contraction,trachea of a guinea pig,9%
"O=S(=O)(NCCN1CCCNCC1)c1ccc(Cl)c2ncccc12 [(36), 1-(8-chloro-5-quinolinesulfonylaminoethyl)homopiperazine]",inhibition in vivo at 1 mg/kg,trachea of a guinea pig,22%
"O=S(=O)(NCCN1CCN(Cc2ccc3c(c2)OCO3)CC1)c1cccc2cnccc12 [(30), 1-(5-isoquinolinesulfonylaminoethyl)-4-(3,4-methylenedioxybenzyl)piperazine]",inhibition in vivo at 1 mg/kg,trachea of a guinea pig,31%
"O=S(=O)(NCCN1CCNCC1)c1cccc2c(O)nccc12 [(32), 1-(1-hydroxy-5-isoquinolinesulfonylaminoethyl) piperazine hydrochloride]",EC50,[1],27 µM
NC1CCCN(S(=O)(=O)c2cccc3cnccc23)C1 (stereo not shown) [1-(5-isoquinolinesulfonyl)-3-aminopiperidine],bronchodilating activity,[3],bronchodilating activity
same,vasodilating activity,[4],vasodiletic activity
N=C(N)NCCNS(=O)(=O)c1cccc2cnccc12 [N-(2-guanidinoethyl)-5-isoquinolinesulfonamide],bronchodilating activity,[3],bronchodilating activity
same,vasodilating activity,[4],vasodiletic activity
CCCCCCN(CCN)S(=O)(=O)c1cccc2cnccc12 [N-(2-aminoethyl)-N-hexyl-5-isoquinolinesulfonamide],bronchodilating activity,[3],bronchodilating activity
same,vasodilating activity,[4],vasodiletic activity
"O=S(=O)(NCCN1CCCN(Cc2ccc3c(c2)OCO3)CC1)c1cccc2c(O)nccc12 [(35), hydrochloride]",EC50,[1],18 µM
"O=S(=O)(NCCN1CCCN(Cc2ccc3c(c2)OCO3)CC1)c1ccc(Cl)c2ncccc12 [(38), 1-(8-chloro-5-quinolinesulfonylaminoethyl)-4-(3,4-methylenedioxybenzyl)homopiperazine]",inhibition in vivo at 1 mg/kg,trachea of a guinea pig,45%
same,suppression of histamine-induced bronchial contraction,trachea of a guinea pig,45%
